{"source": "patent US11564964B2", "about": "“Compositions and methods for the treatment of coronavirus infection” (priority 2021, dated 2023)", "key": {"[1]": {"test_system": "SARS-CoV-2 (hCoV-19/Egypt/NRC-3/2020 isolate)", "settings": "for in vitro SARS-CoV-2 testing (activity in words): SARS CoV-2 infected Vero E6 cells; for activity against SARS CoV-2 (in words): (100 μg/mL)"}, "MTT cytotoxicity assay": {"test": "MTT cytotoxicity assay", "type": "cell-based", "settings": "African green monkey, Vero E6 cells, read-out: cytotoxicity IC50 against Vero E6 cells", "experimental": "Vero-E6 cells with the previously reported (MTT) method^34 were used to test the cytotoxic activity of the test compounds and extracts. In brief, the cells were plated in 96-well plates and incubated for 24 h at 37° C. in 5% CO2 (100 μL/well at a density of 3×10^5 cells/mL). The cells were then treated with different concentrations of extracts/the tested compounds in triplicates. The supernatant was discarded after another 24 h, and cell monolayers were washed three times with sterile 1× PBS. MTT solution was added to each well and then incubated at 37° C. for 4 h. The produced formazan crystals were dissolved with 200 μL of acidified isopropanol (0.04 M HCl in absolute isopropanol=0.073 mL HCL in 50 mL isopropanol). Thereafter, the absorbance of formazan solutions was measured at λmax 540 nm using a multi-well plate reader. The following equation was applied to calculate the percentage of cytotoxicity compared to the untreated cells:\n[formula] The produced plot of % cytotoxicity versus sample concentrations was then used to calculate the IC50s. Viral Inhibitory Concentration 50 (IC50) Determination"}, "[2]": {"test_system": "SARS-CoV-2 (hCoV-19/Egypt/NRC-3/2020 isolate)", "test": "microbe, parasite or virus in culture", "settings": "Severe acute respiratory syndrome coronavirus 2, Vero C1008, read-out: IC50, inhibition of SARS CoV-2 viral replication"}, "SARS-CoV-2 mRNA": {"test_system": "SARS-CoV-2 mRNA", "test": "Quantitative real time measurement of SARS-CoV-2 mRNA expression (TaqMan RT-PCR) in infected Vero E6 cells", "type": "cell-based", "settings": "different concentrations, 24 h and 48 h post treatment, normalized to infected untreated cells", "experimental": "The RNA extraction of expressed SARS-CoV-2 mRNA in infected treated and untreated cell monolayers was performed using QlAamp Viral RNA Mini Kit according to manufacturer instructions. To assess the viral mRNA expression in infected/treated and infected/untreated Vero E6 cells, TaqMan Real-time RT-PCR assay was performed. Briefly, 100 ng of extracted RNA were mixed with TaqMan primers to quantify SARS-CoV-2 mRNA (targeting […]: HKU-ORF1b-nsp14F: 5′-[…]-3′ (SEQ ID NO: 1), HKU-ORF1b-nsp141P Taqman Probe: 5′-FAM-[…]-TAMRA-3′ (SEQ ID NO: 2), HKU-ORF1b-nsp14R: 5′-[…]-3′ (SEQ ID NO: 3) together with the other components of Verso 1-step RT-qPCR Kit plus Rox (Invitrogen) in recommended volumes (up to 50 μl reaction) and thermal protocol conditions.\nTo validate our in silico-derived hits, we evaluated their antiviral activity against the clinical SARS-CoV-2 viral isolate in Vero E6 cells. […] Afterwards, the SARS CoV-2 infected Vero E6 cells were incubated with each of the tested compounds at different concentrations. The antiviral activity was then evaluated by determining the viral copy numbers in the cell supernatant via qRT-PCR. […] The poor antiviral activity of other metabolites (>100 μg/mL) might be attributed to their high polarity that could hinder the permeability across the cell membrane^39."}}, "data": [{"smiles": "O=c1cc(-c2ccc(O)cc2)oc2cc(O[C@@H]3O[C@H](CO)[C@@H](O)[C@H](O)[C@H]3O)cc(O)c12", "note": "[apigenin 7-O-glucoside]", "values": [{"measurement": "in vitro SARS-CoV-2 testing (activity in words)", "setting": "[1]", "result": "inactive"}]}, {"smiles": "COc1ccc(C[C@H]2COC(=O)[C@@H]2Cc2ccc(O[C@@H]3O[C@H](CO)[C@@H](O)[C@H](O)[C@H]3O)c(OC)c2)cc1OC", "note": "[arctiin]", "values": [{"measurement": "in vitro SARS-CoV-2 testing (activity in words)", "setting": "[1]", "result": "inactive"}, {"measurement": "IC50 at 24 h", "setting": "MTT cytotoxicity assay", "result": "> 50", "unit": "µg/mL"}]}, {"smiles": "O=c1c(O[C@@H]2O[C@H](CO)[C@@H](O)[C@H](O)[C@H]2O)c(-c2ccc(O)cc2)oc2cc(O)cc(O)c12", "note": "[astragalin]", "values": [{"measurement": "in vitro SARS-CoV-2 testing (activity in words)", "setting": "[1]", "result": "inactive"}, {"measurement": "IC50 at 24 h", "setting": "MTT cytotoxicity assay", "result": "> 50", "unit": "µg/mL"}]}, {"smiles": "C=C1C(=O)O[C@@H]2/C=C(\\CO)CC/C=C(\\C)C[C@H](OC(=O)C(=C)[C@@H](O)CO)[C@@H]12", "note": "[cnicin]", "values": [{"measurement": "Si=CC50/IC50", "setting": "[1]; safety profile, Vero E6 / SARS CoV-2", "result": 70.3}, {"measurement": "IC50", "setting": "[2]", "result": 1.18, "unit": "µg/mL"}, {"measurement": "inhibitory effect on the viral mRNA", "setting": "SARS-CoV-2 mRNA", "result": "significant viral mRNA inhibition"}]}, {"smiles": "O=c1cc(-c2ccc(O)c(O)c2)oc2cc(O)cc(O)c12", "note": "[luteolin]", "values": [{"measurement": "activity against SARS CoV-2 (in words)", "setting": "[1]", "result": "inactive"}]}, {"smiles": "COc1cc(C[C@H]2COC(=O)[C@]2(O)Cc2ccc(O[C@@H]3O[C@H](CO)[C@@H](O)[C@H](O)[C@H]3O)c(OC)c2)ccc1O", "note": "[nortracheloside]", "values": [{"measurement": "in vitro SARS-CoV-2 testing (activity in words)", "setting": "[1]", "result": "inactive"}]}, {"smiles": "CC[C@H](CC[C@@H](C)[C@H]1CC[C@H]2[C@@H]3CC=C4C[C@@H](O[C@@H]5O[C@H](CO)[C@@H](O)[C@H](O)[C@H]5O)CC[C@]4(C)[C@H]3CC[C@]12C)C(C)C", "note": "[sitogluside]", "values": [{"measurement": "activity against SARS CoV-2 (in words)", "setting": "[1]", "result": "inactive"}]}]}
